Where two headings read alike, the source gives them in different places.
What was measured:
[1] = test system: Feline Infectious Peritonitis Virus (FIPV) strain 79-1146; assay: CPE antiviral assay for FIPV in Crandell-Rees Feline Kidney (CrFK) cells; assay type: cell-based
[2] = test system: feline infectious peritonitis (FIP) virus; settings: tissue culture and experimental cat infection studies; cited from earlier work
[3] = test system: feline calicivirus (FCV) field strain 255; assay: CrFK cell based antiviral activity against Feline Calicivirus (CPE, CellTiterGlo); settings: 48 h, read-out: ED50 of NHC against Feline calicivirus
Description: Example 2 CrFK Cell Based Antiviral Activity of NHC Against Feline Calicivirus (FCV)
Monolayers of Crandell-Rees Feline Kidney (CrFK) cells grown in 96-well plates (Greiner Cat #655090) in 100 μl/well M6B8 medium supplemented with 5% FCS and 0.15% NaHCO3 at a density of 2×10^5 cells/ml were infected with feline calicivirus (FCV) field strain 255 at multiplicities of infection of 0.01 and 0.001. NHC was added in ⅓ serial dilutions to the infected cells to yield a test concentration range of from 10 μM to 0.000508 μM and cultures were incubated for up to 48 hours at 37° C. and 5% C02. The extent of viral replication was assessed by determining the degree of FCV-induced cytopathic effect (CPE) using the CellTiterGlo® Luminescent Cell Viability Assay (Promega Cat #G7571) by adding the reagent 1:1 (v/v) to the culture plates that have been equilibrated to room temperature for 30 minutes. Plates were incubated for 10 minutes at room temperature and subsequently read for luminescence in a Biotek Cytation5. The effective concentration of NHC that reduced FCV replication by 50% (EC50) was calculated in a 4-parameter nonlinear regression model using GraphPad Prism 8.

[4] = test system: Porcine rotavirus A strain of serotype G5P7; assay: Anti-porcine rotavirus immunofluorescent assay in MA-104 cells, strain G5P7; assay type: cell-based; settings: MA104, 72 h, read-out: EC50, replication of porcine rotavirus reduced by half, G5P7 strain
Description: (§1) Example 3 Anti-Porcine Rotavirus Activity of β-D-N(4)-Hydroxycytidine (NHC)
(§2) The anti-rotaviral activity of NHC against swine rotaviruses was tested in a cell culture-based assay. MA-104 (Rhesus monkey kidney tissue) cells were cultured and harvested according to standard procedures. The harvested MA-104 cell suspension was seeded onto 96-well plates (Greiner CELLSTAR® black, Sigma-Aldrich® M0562) in 200 μl/well M6B8 medium with 5% FBS at a density of 3×10^4 cells/mL. After 4 days of culturing, the monolayers were washed and the cells were infected with rotavirus A by adding 100 μl/well of 3630 TCID50/mL Porcine rotavirus A strain of serotype G5P7 (ATCC, VR-892) or strain G9P7 (MAH Worthington, USA). […] Replication inhibition of the Rotavirus A strains by NHC was quantified using a mouse-anti-Rotavirus A strain-specific monoclonal antibody (Ingenasa, #1JF10) followed by FITC-fluorochrome conjugated goat-anti-mouse antibody (Nordic) and DAPI (Sigma Aldrich) nuclear staining in an immunofluorescent assay. The extent of immunofluorescence was quantified as relative fluorescence units (RFU) at 485 nm excitation and 528 nm emission using a Cytation 5 cell imaging multimode reader and Gen5 software version 3.10 (Agilent BioTek). […]

[5] = test system: Porcine rotavirus A strain G9P7; assay: Anti-porcine rotavirus immunofluorescent assay in MA-104 cells, strain G9P7; assay type: cell-based; settings: MA104, 72 h, 3 days, immunofluorescence (FIG. 3b), read-out: EC50, replication of porcine rotavirus reduced by half, G9P7 strain
Description: as §1, §2

[6] = test system: swine influenza virus strain A/swine/Belgium/113/2013 (H3N2); assay: organism not typed; assay type: cell-based; settings: MDCK, 24 h, read-out: EC50, replication of swine influenza virus reduced by half, H3N2 strain
[7] = test system: swine influenza virus strain A/swine/MN/A01483170/2014 (H1N1 pdm); assay: microbe, parasite or virus in culture; assay type: cell-based; settings: H1N1, MDCK, in Sus scrofa, 24 h, read-out: EC50, replication of swine influenza virus reduced by half, H1N1pdm strain
[8] = test system: cytopathic bovine viral diarrhea virus (BVDV) RNA; settings: dose-dependent inhibition of BVDV RNA production; read-out: 90% effective concentration (EC90), production of cytopathic BVDV RNA; cited from earlier work
[9] = test system: bovine viral diarrhea virus (BVDV); settings: BVDV virus yield; read-out: EC90, virus yield assays; cited from earlier work
[10] = FIPV strain 79-1146 infected CRFK cells, 96 hrs, CPE by CellTiterGlo, read-out: EC 50

For `CC(C)C[C@H](NC(=O)OCc1ccccc1)C(=O)N[C@@H](CC1CCNC1=O)C(O)S(=O)(=O)O` (stereo partly shown) [GC-376], the EC50 [1, 10] was 1820 to 3000 nM.
In the case of `N#C[C@@]1(c2ccc3c(N)ncnn23)O[C@H](CO)[C@@H](O)[C@H]1O` [GS-441524], the “Inhibition of FIP virus (in words)” value [2] is listed as “strongly inhibit”.
For `C[C@@]1(O)[C@H](O)[C@@H](CO)O[C@H]1n1ccc2c(N)ncnc21` [MK-0608], the EC50 [1, 10] was over 30000 nM.
For `O=c1nc(NO)ccn1[C@@H]1O[C@H](CO)[C@@H](O)[C@H]1O` [NHC, 1-((2R,3R,4S,5R)-3,4-dihydroxy-5-(hydroxymethyl)tetrahydrofuran-2-yl)-4-(hydroxyamino)pyrimidin-2(1H)-one], the EC50 ([1]; Alphacoronavirus 1, FIPV strain 79-1146 infected CRFK cells, 96 hrs, CPE by CellTiterGlo, read-out: EC 50) was 334 to 370 nM, the “Antiviral dose response against FIPV infected feline kidney cells (in words)” value ([1]; FIG. 1, viral induced CPE) was “protective against viral induced CytoPathic Effect (CPE) in a dose dependent manner” and the EC50 [3] was 3.8 µM. It also gave an EC50 [4] of 2600 nM, an EC50 [5] of 1900 nM and an EC50 [6] of 1300 nM. The EC50 [7] was 5.2 µM, the EC90 [8] was 5.4 µM and the EC90 [9] was 2000 nM.
`CCC(CC)COC(=O)[C@H](C)N[P@](=O)(OC[C@H]1O[C@@](C#N)(c2ccc3c(N)ncnn23)[C@H](O)[C@@H]1O)Oc1ccccc1` [Remdesivir] gave an EC50 ([1]; Alphacoronavirus 1, CRFK, 96 h) of 735 to 970 nM.

From patent publication US20240342204A1, “METHOD OF TREATING VETERINARY VIRAL DISEASES” (Intervet Inc., priority 2021, published 2024)
